Data as given in patent US8778966B2, “Quinolinone derivatives as PARP and tank inhibitors” (Janssen Pharmaceutica, NV, priority 2007, dated 2014).
Where two headings read alike, the source gives them in different places.

Legend:
HCT116 cells = assay: Antiproliferative activity, Alamar Blue assay, HCT116 cells; type: cell-based, human; conditions: Homo sapiens, HCT-116, HCT116 cells, read-out: HCT116 antiproliferative activity pIC50 (converted)
How it was run: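 HCT116 cells seeded, adhered 24 h, then exposed to compound for 4 days; Alamar Blue (resazurin) added for 4 h at 37 °C, fluorescence read at 540/590 nm. Viability as % of untreated control, triplicate wells; IC50 by probit analysis, reported as pIC50.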

Human PARP-1 enzyme = biological target: T1, Human PARP-1 enzyme (Homo sapiens, UniProt P09874); assay: In vitro Scintillation Proximity Assay (SPA) for PARP-1 inhibitory activity; type: biochemical; conditions: read-out: in vitro SPA assay PARP-1 pIC50 (converted)
T1 construct: purchased Trevigen
T1 sequence (P09874 whole entry): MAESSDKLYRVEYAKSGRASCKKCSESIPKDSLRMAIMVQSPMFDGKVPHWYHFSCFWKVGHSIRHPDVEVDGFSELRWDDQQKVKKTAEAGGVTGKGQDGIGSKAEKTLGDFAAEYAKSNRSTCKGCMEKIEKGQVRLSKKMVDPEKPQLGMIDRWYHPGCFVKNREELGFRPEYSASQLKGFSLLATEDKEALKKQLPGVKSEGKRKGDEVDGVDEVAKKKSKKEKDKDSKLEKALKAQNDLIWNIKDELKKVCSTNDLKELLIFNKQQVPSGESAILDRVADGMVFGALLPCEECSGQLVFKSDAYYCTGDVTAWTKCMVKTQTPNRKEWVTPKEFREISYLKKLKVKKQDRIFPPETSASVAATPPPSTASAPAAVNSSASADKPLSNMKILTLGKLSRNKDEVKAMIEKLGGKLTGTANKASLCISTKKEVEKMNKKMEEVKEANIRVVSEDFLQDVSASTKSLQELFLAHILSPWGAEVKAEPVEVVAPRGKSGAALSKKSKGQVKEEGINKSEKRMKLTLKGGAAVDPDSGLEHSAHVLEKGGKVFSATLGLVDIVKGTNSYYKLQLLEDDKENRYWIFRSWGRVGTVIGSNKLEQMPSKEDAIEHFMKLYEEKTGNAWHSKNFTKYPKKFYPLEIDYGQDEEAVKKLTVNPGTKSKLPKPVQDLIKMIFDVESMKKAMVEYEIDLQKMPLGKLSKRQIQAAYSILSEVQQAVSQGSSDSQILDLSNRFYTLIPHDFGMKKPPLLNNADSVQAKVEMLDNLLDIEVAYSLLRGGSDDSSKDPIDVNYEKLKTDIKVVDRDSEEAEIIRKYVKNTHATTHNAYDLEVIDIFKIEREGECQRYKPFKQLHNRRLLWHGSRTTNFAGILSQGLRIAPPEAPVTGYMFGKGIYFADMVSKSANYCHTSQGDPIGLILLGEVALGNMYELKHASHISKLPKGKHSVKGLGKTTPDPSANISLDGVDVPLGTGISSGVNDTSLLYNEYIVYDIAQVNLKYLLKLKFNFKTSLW
How it was run: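 SPA assay: nicked-DNA-activated PARP-1 (0.1–0.2 μg/ml) ADP-ribosylates biotinylated histones (2 μg/ml) using [3H]-NAD+, 20 min at RT in Tris pH 8/DTT/MgCl2, stopped with 2 mM NAD+. Blank-subtracted cpm expressed as % control; IC50 by linear interpolation, reported as pIC50 (10−5 to 3×10−9 M tested).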

With `Cc1cc2ccc(C(C)(C#N)C3CCCc4ccccc43)cc2[nH]c1=O` (centres unmarked) [Compound 404] the IC50 (HCT116 cells; Alamar Blue) was 1580 nM and the IC50 (Human PARP-1 enzyme) was 200 nM.

Compound `CCc1cc2c(OC)cc(C(C)(C#N)Cc3nc(OC)cc(OC)n3)cc2[nH]c1=O` (centres unmarked) [Compound 229] has an IC50 (HCT116 cells; Alamar Blue) of 2510 nM and an IC50 (Human PARP-1 enzyme) of 63.1 nM.

For `CCc1cc2ccc(C(C)(C#N)Cc3cccc(/C=N/O)c3)cc2[nH]c1=O` (centres unmarked) [Compound 299], the IC50 (HCT116 cells; Alamar Blue) was 631 nM and the IC50 (Human PARP-1 enzyme) was 31.6 nM.

`CCc1cc2ccc(C(C)(C#N)Cc3cc(Br)cc4c3OCC4)cc2[nH]c1=O` (centres unmarked) [Compound 378] showed an IC50 (HCT116 cells; Alamar Blue) of 501 nM and an IC50 (Human PARP-1 enzyme) of 79.4 nM.

`CCc1cc2ccc(C(C)(C#N)CN3CCN(c4ccc(C#N)cn4)CC3)cc2[nH]c1=O` (centres unmarked) [Compound 377] gave an IC50 (HCT116 cells; Alamar Blue) of 1000 nM and an IC50 (Human PARP-1 enzyme) of 50.1 nM.

`CCc1cc2ccc(C(C)(C#N)Cc3cccc(C(=O)OC(C)C)c3)cc2[nH]c1=O` (centres unmarked) [Compound 255] was tested, and the IC50 (HCT116 cells; Alamar Blue) was 158 nM and the IC50 (Human PARP-1 enzyme) was 50.1 nM.

`CCc1cc2ccc([C@@](C)(C#N)Cc3cc(OC)nc(C)n3)cc2[nH]c1=O` (single isomer, unassigned) [Compound 361] was tested, and the IC50 (HCT116 cells; Alamar Blue) was 10000 nM and the IC50 (Human PARP-1 enzyme) was 126 nM.

`CCc1cc2ccc(C(C)(C#N)Cc3nc(C#N)cc(OC)n3)cc2[nH]c1=O` (centres unmarked) [Compound 313] gave an IC50 (HCT116 cells; Alamar Blue) of 200 nM and an IC50 (Human PARP-1 enzyme) of 100 nM.

For `CCc1cc2ccc([C@](C)(C#N)Cc3cccc(C#CCO)c3)cc2[nH]c1=O` (single isomer, unassigned) [Compound 296], the IC50 (HCT116 cells; Alamar Blue) was 126 nM and the IC50 (Human PARP-1 enzyme) was 31.6 nM.

For `CCc1cc2ccc(C(C)(C#N)Cc3cccc(OC)c3F)cc2[nH]c1=O` (centres unmarked) [Compound 286], the IC50 (HCT116 cells; Alamar Blue) was 5010 nM and the IC50 (Human PARP-1 enzyme) was 25.1 nM.

Work on `CCc1cc2ccc(C(C)(C#N)Cc3cccc(C(=N)NO)c3)cc2[nH]c1=O` (centres unmarked) [Compound 186] yielded an IC50 (HCT116 cells; Alamar Blue) of 3980 nM and an IC50 (Human PARP-1 enzyme) of 39.8 nM.

`CCc1cc2ccc(C(C)(C#N)Cc3cc(C#N)nc(OC)c3)cc2[nH]c1=O` (centres unmarked) [Compound 314] showed an IC50 (HCT116 cells) of 631 nM and an IC50 (Human PARP-1 enzyme) of 50.1 nM.

For `CCc1cc2ccc(C(C)(C#N)Cc3cccc(OCCCN4CCNCC4)c3)cc2[nH]c1=O` (centres unmarked) [Compound 25], the IC50 (HCT116 cells) was 3160 nM and the IC50 (Human PARP-1 enzyme) was 1580 nM.

`CCc1cc2ccc(C(C)(C#N)Cc3cccc(OCCC#N)c3)cc2[nH]c1=O` (centres unmarked) [Compound 195] was tested, and the IC50 (HCT116 cells; Alamar Blue) was 251 nM and the IC50 (Human PARP-1 enzyme) was 39.8 nM.

With `CCc1cc2ccc(C(C)(C#N)Cc3cccc(OCCCC#N)c3)cc2[nH]c1=O` (centres unmarked) [Compound 194] the IC50 (HCT116 cells) was 501 nM and the IC50 (Human PARP-1 enzyme) was 25.1 nM.

With `CCc1cc2ccc(C(C)(C#N)Cc3nc(Cl)cc(OC)n3)cc2[nH]c1=O` (centres unmarked) [Compound 202] the IC50 (HCT116 cells; Alamar Blue) was 200 nM and the IC50 (Human PARP-1 enzyme) was 79.4 nM.

Work on `CCc1cc2ccc(C(C)(C#N)CNCc3ccc(C#N)cc3)cc2[nH]c1=O` (centres unmarked) [Compound 302] yielded an IC50 (HCT116 cells; Alamar Blue) of 5010 nM and an IC50 (Human PARP-1 enzyme) of 126 nM.

Compound `CCc1cc2ccc(C(C)(C#N)Cc3cccc(NC)n3)cc2[nH]c1=O` (centres unmarked) [Compound 339] has an IC50 (HCT116 cells; Alamar Blue) of 2000 nM and an IC50 (Human PARP-1 enzyme) of 39.8 nM.

`CCc1cc2ccc(C(C)(C#N)Cc3cc(N(C)C)nc(N(C)C)n3)cc2[nH]c1=O` (centres unmarked) [Compound 320] was tested, and the IC50 (HCT116 cells; Alamar Blue) was 398 nM and the IC50 (Human PARP-1 enzyme) was 200 nM.

`CCc1cc2ccc(C(C)(C#N)COCc3ccccc3)cc2[nH]c1=O` (centres unmarked) [Compound 197] was tested, and the IC50 (HCT116 cells; Alamar Blue) was 2000 nM and the IC50 (Human PARP-1 enzyme) was 100 nM.

With `CCc1cc2ccc(C(C)(C#N)Cc3cccc(OCCS(C)(=O)=O)c3)cc2[nH]c1=O` (centres unmarked) [Compound 201] the IC50 (HCT116 cells) was 2510 nM and the IC50 (Human PARP-1 enzyme) was 25.1 nM.

With `Cc1cc2ccc(C(C)(C#N)C3CCc4ccccc43)cc2[nH]c1=O` (centres unmarked) [Compound 392] the IC50 (HCT116 cells; Alamar Blue) was 398 nM and the IC50 (Human PARP-1 enzyme) was 126 nM.

With `CCc1cc2ccc(C(C)(C#N)Cc3cccc(/C=N/OC)c3)cc2[nH]c1=O` (centres unmarked) [Compound 185] the IC50 (HCT116 cells) was 200 nM and the IC50 (Human PARP-1 enzyme) was 20 nM.

`CCc1cc2ccc(C(C)(C#N)Cc3cc(Br)cc(N(C)C)c3)cc2[nH]c1=O` (centres unmarked) [Compound 260] gave an IC50 (HCT116 cells; Alamar Blue) of 158 nM and an IC50 (Human PARP-1 enzyme) of 79.4 nM.

For `CCc1cc2ccc(C(C)(C#N)Cc3cc(OC)nc(OC)c3)cc2[nH]c1=O` (centres unmarked) [Compound 350], the IC50 (HCT116 cells; Alamar Blue) was 794 nM and the IC50 (Human PARP-1 enzyme) was 39.8 nM.

For `Cc1cc2ccc([C@](C)(C#N)C3CCc4ccccc43)cc2[nH]c1=O` (single isomer, unassigned) [Compound 386], the IC50 (HCT116 cells; Alamar Blue) was 200 nM and the IC50 (Human PARP-1 enzyme) was 126 nM.

In the case of `C#CCOc1cccc(CC(C)(C#N)c2ccc3cc(CC)c(=O)[nH]c3c2)c1` (centres unmarked) [Compound 196], the IC50 (HCT116 cells; Alamar Blue) is reported as 631 nM and the IC50 (Human PARP-1 enzyme) is reported as 25.1 nM.

In the case of `CCc1cc2ccc([C@](C)(C#N)CCOc3ccc(C#N)cc3)cc2[nH]c1=O` (single isomer, unassigned) [Compound 275], the IC50 (HCT116 cells; Alamar Blue) is reported as 10000 nM and the IC50 (Human PARP-1 enzyme) is reported as 50.1 nM.

Work on `CCOc1cccc(CC(C)(C#N)c2ccc3cc(CC)c(=O)[nH]c3c2)c1` (centres unmarked) [Compound 285] yielded an IC50 (HCT116 cells; Alamar Blue) of 794 nM and an IC50 (Human PARP-1 enzyme) of 50.1 nM.

Work on `CCc1cc2ccc(C(C)(C#N)Cc3cc(OC)c(OC)c(OC)c3)cc2[nH]c1=O` (centres unmarked) [Compound 289] yielded an IC50 (HCT116 cells; Alamar Blue) of 126 nM and an IC50 (Human PARP-1 enzyme) of 158 nM.

Work on `CCc1cc2ccc(C(C)(C#N)Cc3cccc(C#N)[n+]3[O-])cc2[nH]c1=O` (centres unmarked) [Compound 228] yielded an IC50 (HCT116 cells) of 1580 nM and an IC50 (Human PARP-1 enzyme) of 50.1 nM.
